Data on 3 molecules can be found in US9770436B2, “Polymorphs of azabicyclohexane” (EUTHYMICS BIOSCIENCE, INC., priority 2004, dated 2017).

For data set [1] the following is noted: (+) isomeric form; cited from earlier work.
Data set [2] can be described thus: Informal storage stability of the Example 1 hydrochloride salt (50% by weight mixture of polymorph forms A and B) in desiccators; polymorph content by XRPD and Raman. The format is physicochemical. As to conditions: started as 50% (by weight) A / 50% B, XRPD. The procedure: The X-ray powder diffraction pattern (XRPD) analyses of polymorph forms A, B and C were performed with a Shimadzu XRD-6000 X-ray powder diffractometer using Cu Ka radiation. In this procedure the compound as a hydrochloride salt was loaded onto the machine as a crystalline powder. The instrument was equipped with a long fine focus X-ray tube. The tube voltage and amperage were set to 40 kV and 40 mA, respectively. The divergence and scattering slits were set at 1° and the receiving slit was set at 0.15 mm. Diffracted radiation was detected by a Nal scintillation detector. A theta-two theta continuous scan at 3°/min (0.4 sec/0.02° step) from 2.5 to 40° 2θ was used. A silicon standard was analyzed to check the instrument alignment. Data were collected and analyzed using XRD-6000 v. 4.1.
Briefly, Raman spectra were obtained using a FT-Raman 960 (or 860) spectrometer (Thermo Nicolet) interfaced to an 860 FT-IR. This spectrometer uses an excitation wavelength of 1064 nm. Approximately 0.912 W of Nd:YV04 laser power was used to irradiate the samples. The Raman spectra were measured with an indium gallium arsenide (InGaAs) detector. The samples were pressed into pellets for analysis. A total of 128 sample scans were collected from 3600 or 3700-98 cm^−1 at a spectral resolution of about (±) 4 cm^−1, using Happ-Genzel apodization. Wavelength calibration was performed using sulfur and cyclohexane. The Raman spectra peak positions given below in wavenumbers (cm^−1) for the purified polymorph forms A, B and C of the hydrochloride salt of (+)-1-(3,4-dichlorophenyl)-3-azabicyclo[3.1.0]hexane are subject to an error of about (±) 4 cm^−1.
Duplicate samples of the hydrochloride salt of (+)-1-(3,4dichlorophenyl)-3-azabicyclo[3.1.0] hexane produced in Example 1 and containing a 50% (by weight) mixture of polymorph form A and polymorph form B were placed on informal stability to test storage in desiccators placed at ambient temperature and at 50° C. in a programmable heating bloc.

Data set [3] is described as follows: Thermodynamic stability of the crystalline polymorph forms. The format is physicochemical. Conditions: pure crystalline structure, acid addition salt.
Setting [4] is: 50° C. programmable heating block, after 17 days of storage.
[5] abbreviates: desiccator, ambient temperature, after 1 week, confirmed by Raman.

As to `Clc1ccc(C23CNCC2C3)cc1Cl` (single isomer, unassigned; (+)) [compound of formula I, (+)-1-(3,4-dichlorophenyl)-3-azabicyclo[3.1.0]hexane], in data set [1], the anti-depressive activity entry is recorded as “potent anti-depressive activity”.
Turning to `Cl.Clc1ccc(C23CNCC2C3)cc1Cl` (stereo not drawn) [Example 1, hydrochloride salt of (+)-1-(3,4dichlorophenyl)-3-azabicyclo[3.1.0] hexane], in data set [2] (setting [4]), the “content of polymorph form A after storage” value was “about 50 % (by weight)” and the “content of polymorph form C after storage” value is reported as 50 % (by weight). Moreover, in data set [2] (setting [5]), the “content of polymorph form A after storage” value was 40 % (by weight) and the “content of polymorph form B after storage” value was 60 % (by weight).
For the molecule `Cl.Clc1ccc(C23CNCC2C3)cc1Cl` (stereo not drawn) [polymorph form A, hydrochloride salt of (+)-1-(3,4-dichlorophenyl)-3-azabicyclo[3.1.0]hexane], the “thermodynamic stability of the polymorph form” value in data set [3] is “thermodynamically stable”.
